US20240325383A1, “Small Molecule Targeting of BRD4 for Treatment of COVID-19” (Board of Regents, The University of Texas System, priority 2023, published 2024)
Entries after “also recorded” stand apart in the source; their conditions may differ.

Assays:
rSARS-COV-2mNG = format: cell-based, SARS-COV-2
CXCL10 expression = format: cell-based, human
[1] = cited from earlier work

SMILES	virus titer (FFA) (rSARS-COV-2mNG)	CXCL10 expression (CXCL10 expression)	solubility in 95% ethanol ([1]; 95% ethanol)	solubility in dimethyl sulfoxide ([1]; dimethyl sulfoxide)	solubility in dimethylformamide ([1]; dimethylformamide)	solubility in methanol ([1]; methanol)	solubility in water ([1]; water)
COc1cc(OC)c2c(=O)cc(-c3cc(C)c(OCCCN4CCN(C)CC4)c(C)c3)oc2c1 [ZL0969]	significantly reduce virus titer	reduces expression levels of CXCL10; also recorded: reduce CXCL10 expression					
CCC(=O)O[C@]1(C(=O)SCF)[C@H](C)C[C@H]2[C@@H]3C[C@H](F)C4=CC(=O)C=C[C@]4(C)[C@@]3(F)[C@@H](O)C[C@@]21C [Fluticasone propionate]			slightly soluble	freely soluble	freely soluble	slightly soluble	practically insoluble
